Source: article PMC11507441, “Oilseed Cakes: A Promising Source of Antioxidant, and Anti-Inflammatory Agents—Insights from Lactuca sativa” (International Journal of Molecular Sciences, 2024)
In brackets after ≈: the same amount, converted by molar mass.

How the values were obtained:
[1] = test system: E. coli; assay: Antimicrobial screening, zone of inhibition; assay type: cell-based; conditions: for E. coli %Activity Index: 1 mg/mL; for zone of inhibition at 1000 µg/mL: Escherichia coli, isolated compounds 1 mg/mL, read-out: E. coli Diameter of Inhibition Zone (mm)
Description: (§1) The procedure was performed according to […] et al.. A comparison of the extract's zone of inhibition to that of a reference antibiotic's activity index was determined using the following equation:Activity index = (the inhibition zone of extract/the inhibition zone of the standard) × 100

[2] = test system: S. aureus; assay: Antimicrobial screening, zone of inhibition; assay type: cell-based; conditions: for S. aureus %Activity Index: 1 mg/mL
Description: as §1

[3] = ABTS antioxidant assay; assay type: biochemical; design: IC50 in ABTS assay: unit not given beside the values
Description: The experiment was performed in triplicate according to Zaky et al.. The absorbance of control of the resulting green-blue solution (ABTS* radical solution) was recorded at λ max 734 nm.

[4] = test system: P. aeruginosa; assay: Antimicrobial screening, zone of inhibition; assay type: cell-based; conditions: Table 1; for zone of inhibition at 1000 µg/mL: Pseudomonas aeruginosa, isolated compounds 1 mg/mL, read-out: P. aeruginosa Diameter of Inhibition Zone (mm)
Description: The procedure was performed according to Stylianakis et al.. A comparison of the extract’s zone of inhibition to that of a reference antibiotic’s activity index was determined using the following equation:Activity index = (the inhibition zone of extract/the inhibition zone of the standard) × 100

[5] = test system: C. albicans; assay: Antimicrobial screening, zone of inhibition; assay type: cell-based; conditions: for zone of inhibition at 1000 µg/mL: Candida albicans, isolated compounds 1 mg/mL, read-out: C. Albicans Diameter of Inhibition Zone (mm); for C. Albicans %Activity Index: 1 mg/mL
Description: as §1

[6] = test system: HepG-2 cancer cell line; assay: Cytotoxic activity (MTT assay); assay type: cell-based
Description: (§2) The HPLC was performed in the Institute for Plant Biology, TU Braunschweig, using a Young Lin quaternary pump, vacuum degasser, column oven (40 °C), diode array detector (YL9160 PDA), and a Midas Spark Holland autosampler. UV spectra (λ max) were measured in the central laboratory of the Faculty of Pharmaceutical Science at Mansoura University using spectroscopic methanol with an ultraviolet-visible spectrophotometer (Shimadzu 1601 PC, version TCC-240A, Kyoto, Japan). The NMR unit of Mansoura University’s Faculty of Pharmacy obtained nuclear magnetic resonance spectra (^1H-NMR, ^13C-NMR, DEPT-Q, APT, HSQC, and HMBC) using a Bruker DRX 600 NMR spectrometer (600 and 150 MHz for ^1H and ^13C-NMR, respectively) and with the Bruker Corporation Avance III 400 spectrometer, which measures ^1H and ^13C-NMR at 400 and 100 MHz, respectively. The types of solvents that are used are CDCl3, CD3OD, and DMSO-d6. For normal phase chromatography, silica gel G 60–230 mesh (Merck, Darmstadt, Germany) was packed using a wet or dry method in the specified solvent. The purchase of Normal Human lung fibroblast (WI-38), hepatic cancer cell lines (HePG-2), and mammary gland (MCF-7) cell lines from ATCC was made possible by the Holding firm for biological goods and vaccines (VACSERA), which is based in Cairo, Egypt.
(§3) Using the MTT test, the inhibitory effects of substances on cell growth were ascertained using the cell lines compared to normal lung fibroblast cells (WI-38). The selectivity index was calculated via the Selectivity index (SI) equation: SI equals IC50 normal/IC50 cancer.

[7] = test system: MCF-7 cancer cell line; assay: Cytotoxic activity (MTT assay); assay type: cell-based
Description: as §2, §3

[8] = Cytotoxic activity (MTT assay), normal cells; assay type: cell-based; conditions: human
Description: as §2, §3

[9] = Table S1, relative to ampicillin standard
[10] = Table S1, extracts and fractions 1 mg/mL
[11] = Table 1, relative to clotrimazole
[12] = IC50 normal (WI-38)/IC50 cancer
[13] = Table 1, relative to ciprofloxacin

CC1(C)S[C@@H]2[C@H](NC(=O)[C@H](N)c3ccccc3)C(=O)N2[C@H]1C(=O)O [Ampicillin, ampicillin, reference compound]
E. coli %Activity Index [1, 9]: 100%
E. coli Diameter of inhibition zone (mm) [1, 10]: 23.9 ± 0.15 mm
S. aureus %Activity Index [2, 9]: 100%
S. aureus Diameter of inhibition zone (mm) [2, 10]: 22.87±0.15 mm

O=C1O[C@H]([C@@H](O)CO)C(O)=C1O [Ascorbic acid]
IC50 in ABTS assay ([3]; fractions of lettuce seedcake extract, unit not given): 29.47 ± 0.17
% inhibition in ABTS assay ([3]; seed cakes' methanolic extract at 1 mg/mL): 88.1%

O=C(O)c1cn(C2CC2)c2cc(N3CCNCC3)c(F)cc2c1=O [Ciprofloxacin, ciprofloxacin, reference compound]
zone of inhibition at 1000 µg/mL ([1]; Table 1): 26 ± 0.3 mm
zone of inhibition at 1000 µg/mL [4]: 22.87 ± 0.15 mm

Clc1ccccc1C(c1ccccc1)(c1ccccc1)n1ccnc1 [Clotrimazole, clotrimazole, reference compound]
zone of inhibition at 1000 µg/mL ([5]; Table 1): 26.9 ± 0.1 mm
C. Albicans %Activity Index [5, 11]: 100%
C. Albicans %Activity Index ([5]; Table S1, relative to clotrimazole standard): 100%
C. Albicans Diameter of inhibition zone (mm) [5, 10]: 25.9±0.1 mm

O=c1cc(-c2ccc(O)c(O)c2)oc2cc(O)cc(O)c12 [Compound 2, luteolin]
IC50 ([6]; Homo sapiens, HepG2, read-out: In Vitro Cytotoxicity IC50 (µg/mL) HepG-2): 19.5 ± 1.3 µg/mL (≈ 68.1 µM)
Selectivity Index HepG2 [6, 12]: 3
IC50 ([7]; Homo sapiens, MCF7, read-out: In Vitro Cytotoxicity IC50 (µg/mL) MCF-7): 11.6 ± 0.9 µg/mL (≈ 40.6 µM)
Selectivity Index MCF-7 [7, 12]: 5.1
IC50 [8]: 59.3 ± 3.2 µg/mL (≈ 207 µM)
zone of inhibition at 1000 µg/mL ([5]; Table 1): 10.7 ± 0.15 mm
C. Albicans %Activity Index [5, 11]: 40.5%
zone of inhibition at 1000 µg/mL ([1]; Table 1): 9.8 ± 0.2 mm
E. coli %Activity Index [1, 13]: 37.8%
zone of inhibition at 1000 µg/mL ([2]; Staphylococcus aureus, Table 1, isolated compounds 1 mg/mL, read-out: S. aureus Diameter of Inhibition Zone (mm)): 17 ± 0.1 mm
S. aureus %Activity Index [2, 13]: 71.7%
zone of inhibition at 1000 µg/mL [4]: 12.9 ± 0.1 mm
P. aeruginosa %Activity Index ([4]; 1 mg/mL, relative to ciprofloxacin): 56.6%
